The record followed here is BindingDB's records for patent US11440904 (2022).

In general, IC50 refers to the concentration at which inhibition is half-maximal. The low end stands for greater potency in that assay, the high end for weaker potency in that assay.

The target of this experiment is Tyrosine-protein kinase BTK (Homo sapiens, UniProt Q06187).

Where only a bound is given, the exact number is not on record here.

Tyrosine-protein kinase BTK, sequence (Q06187 whole entry): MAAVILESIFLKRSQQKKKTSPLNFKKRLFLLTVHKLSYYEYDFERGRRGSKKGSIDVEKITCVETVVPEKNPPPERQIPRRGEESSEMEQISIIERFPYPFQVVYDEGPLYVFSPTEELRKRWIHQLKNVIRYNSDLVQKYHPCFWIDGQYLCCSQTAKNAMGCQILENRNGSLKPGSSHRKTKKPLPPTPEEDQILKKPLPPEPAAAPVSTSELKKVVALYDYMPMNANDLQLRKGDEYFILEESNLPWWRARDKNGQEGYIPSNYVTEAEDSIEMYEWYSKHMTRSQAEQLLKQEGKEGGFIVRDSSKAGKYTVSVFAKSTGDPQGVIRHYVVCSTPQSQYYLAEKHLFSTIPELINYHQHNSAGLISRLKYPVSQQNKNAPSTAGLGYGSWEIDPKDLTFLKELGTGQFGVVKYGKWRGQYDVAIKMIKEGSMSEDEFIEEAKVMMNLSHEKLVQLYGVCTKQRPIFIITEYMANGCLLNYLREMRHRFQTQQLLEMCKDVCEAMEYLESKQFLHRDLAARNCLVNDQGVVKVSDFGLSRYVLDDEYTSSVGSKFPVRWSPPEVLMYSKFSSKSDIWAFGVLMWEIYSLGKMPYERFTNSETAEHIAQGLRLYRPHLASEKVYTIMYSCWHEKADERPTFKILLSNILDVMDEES
Description: Then, Kinase assays were performed using the HotSpot assay platform.Briefly, specific kinase/substrate pairs along with required cofactors were prepared in reaction buffer; 20 mM Hepes pH 7.5, 10 mM MgCl2, 1 mM EGTA, 0.02% Brij35, 0.02 mg/ml BSA, 0.1 mM Na3VO4, 2 mM DTT, 1% DMSO. Compounds were delivered into the reaction, followed about 20 minutes later by addition of a mixture of ATP (Sigma, St. Louis Mo.) and 33P ATP (Perkin Elmer, Waltham Mass.) to a final concentration of 10 μM.Reactions were carried out at room temperature for 120 min, followed by spotting of the reactions onto P81 ion exchange filter paper (Whatman Inc., Piscataway, N.J.). Unbound phosphate was removed by extensive washing of filters in 0.75% phosphoric acid. […] IC50 values and curve fits were obtained using Prism (GraphPad Software).

`C=CC(=O)Nc1ccccc1Nc1nc(Nc2ccc(OCCCOC3(CC)OCC(C)(C)CO3)cc2)ncc1F` [US11440904, Compound 9]: the half-maximal inhibitory concentration (IC50) is > 100 nM.
